Measured values as given in BindingDB's records for patent US9233979 (Merck Sharp & Dohme, 2016).

Biological target: Mitogen-activated protein kinase 1 (Homo sapiens, UniProt P28482)
Test: IMAP-FP Assay
Procedure: Activated ERK2 activity was determined in an IMAP-FP assay (Molecular Devices).

Mitogen-activated protein kinase 1, sequence (P28482 whole entry): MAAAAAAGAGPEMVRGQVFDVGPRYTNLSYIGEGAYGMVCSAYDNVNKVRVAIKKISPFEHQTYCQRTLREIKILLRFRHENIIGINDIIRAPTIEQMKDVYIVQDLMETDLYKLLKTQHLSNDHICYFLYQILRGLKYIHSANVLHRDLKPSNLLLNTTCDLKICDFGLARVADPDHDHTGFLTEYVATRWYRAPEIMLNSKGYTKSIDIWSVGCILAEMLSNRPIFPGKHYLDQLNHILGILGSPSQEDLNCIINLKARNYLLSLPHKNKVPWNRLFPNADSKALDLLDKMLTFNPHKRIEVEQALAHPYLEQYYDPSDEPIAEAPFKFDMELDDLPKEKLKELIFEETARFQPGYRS

IC50: 8.69 nM
SMILES: COC1CN(c2n[nH]c3cc(NC(=O)N[C@H](C)c4ccc(F)cc4)ncc23)C1 [US9233979, 23]
